In publication PMC12851007 (Angewandte Chemie (International Ed. in English), 2025):
Where two headings read alike, the source gives them in different places. Where a SMILES comes first, the peptide text is derived from it.

How the values were obtained:
[1] = CX4/LCG supramolecular tandem membrane assay, POPC vesicles; format: in vitro ADME; details: n = 1; for EC50: pH 7.5, error = SD of fit; for Y30µM, membrane activity, CX4/LCG assay: 30 µM peptide, 25 µM POPC⸧CX4/LCG-LUVs (inside 700 µM CX4, 500 µM LCG) in 10 mM Hepes, pH 7.0, 25 °C, fluorescence λexc 369/λem 502 nm, peptide at 60 s, TX-100/protamine at 600 s, fractional activity
Description: Membrane Activity M easurements
Vesicle preparation. 100 µ L of a solution of 25 mg/ml of POPC in chloroform or 200 µ L of a solution of 25 mg/ml of EYPC in chloroform was purged with nitrogen and dried overnight under hi gh vacuum. The thin lipid film was rehydrated with 1 ml reh ydrati on buffer (= inside buffer, see Tabl e S2 ) b y agitation at room temperature for 30min and then subjected to 2 0 freeze- th aw c ycles (freezing in liquid nitro gen and thawing at 40 °C). […]
Ta b l e S 2. Combinations of lipids and inside and outside buffer for CX4/LCG -LUVs.
No. Lipid Inside buffer = rehydration buffer Outside buffer
(4) POPC 10 mM Hepes, 700 µM CX4, 500 µM LCG, 10 mM Hepes buffer, 175 mM glucose, pH 7.5 [a] 175 mM glucose, pH 7.5 [a]
[a] Glucose b uffers (183 mOsm/L at 25 °C) were used within one week after preparation.
Vesicle quality control. T o ensure the absence of the CX4/ LCG reporter pair in the ex travesicular ph ase, 20 µL of the collected liposome fr action w as diluted to 2 ml with outside buffer and the fluor escen ce (λ exc = 369 nm; λ em = 502 nm) was recorded during the addition of […]
The final lipid content in the liposome suspension after p repa rat ion and separ ation was d etermined b y NMR as p reviousl y reported. Assay protocol. An appropriate volume of the liposome stock solutions was diluted to 2m L with outside buffer in a 10 ×10 mm quartz glass cuvette to afford a phospholipid concentration of 25 µM. The cuvette was placed into a thermostatted fluorimeter sample holder at 25.0 °C and gentl y stirred at 300 rpm. Subsequently, the time-dependent change in fluorescence intensity (λ exc = 369 nm; λ em = 502 nm) was record ed during addition of 20 µ L of peptide stock solutions of varying concentrations at 60 s. At 600 s, 20µ L o f a solution containing 1.6% (wt/vol) TX-100 and 1.5 mM protamine was added for calibration to affo rd 0.016% (wt/vol) TX-100 and 15 µM protamine final concent rations.
Time-dep endent fluores cence intensit y traces, I (t), were subsequentl y normalized to fractional intensities, If(t), using equation (1). Therein, I 0 is the intensity just before addition of peptide and I ∞ is the constant intensit y after addition of the calibration cockt ail.
IIf (tt ) = II (tt )−II0II∞ − II0 (1)
The concentration-dependent fractional intensities just before the addition of the calibration cocktail, If, were then normalized to fractional membrane activities, Y, using equation (2).
Therein, If,0 is the fractional intensit y just before addition of the calibration cocktail in absence of peptide and I f,∞ is the constant fractional intensity after addition of the calibration cocktail.
YY = IIf − IIf,0IIf,∞ − IIf,0 (2)
The fractional membrane activities, Y, were subsequently plotted against the peptide concentration, c, and analysed using the Hill equation (3) to obtain the effective molar concentration, EC50, and the Hill coefficient, n. Y0 and Y ma x are the fractional membrane activities in absen ce o f p eptide and at max imal peptide concent rations. For peptides with too little activity to determine Y ma x ex perimentall y, Y max was fixed at 1.0 during fitting. […]

[2] = format: binding; details: LCG displacement in 10 mM Hepes, pH 7.0, 25 °C; fluorescence; error = SD of nonlinear fit, n = 1
Description: Fluorescence titrations were performed as previously described and the resulting titration curves we re an al yz ed usi ng established pro cedur es . Competitive titrations were eithe r anal yz ed with a fitting function assuming 1:1 host-competitor complexes[3] or with a fitting function involving hi gher complex es with more than on e h ost bound per peptide.[4] In the latter c ase, an identical binding affinity is assumed for all binding sites. […]
Figure S1. a) Fluorescence titration of 0.5 µM LCG ( λex = 369 n m) with varying concentrations of CX4 in 10 mM Hepes, pH 7.0, 25 °C .b) Respective titration curve ( λem = 502 nm) with fitted line . […]
Figure S2. a) Competitive fluorescence titration wit h 0.5 µM LCG, 1 µM CX4 ( λex = 369 nm) and varying concentrations of penetratin in 10 mM Hepes, pH 7.0, 25 °C . b) Respective titration c ur ve (λem = 502 nm) with fitted line .
(also on this page, place not known: analyzed using procedures. were either analyzed host -competitor higher complexes one host case, 700 Intensity Intensity (λex °C. line. 650 0 Intensity 0 Intensity b) curve (λem nm) with line.)

[3] = 25 µM lipid, POPC⊃CX4/LCG-LUVs, 10 mM Hepes, fractional activity at 590 s, Hill fit, read-out: EC50, CX4/LCG assay, POPC
[4] = single-channel, 25 µM POPC⸧CX4/LCG-LUVs, inside 10 mM Hepes, 700 µM CX4, 500 µM LCG, 175 mM glucose, outside 10 mM Hepes, 175 mM glucose, read-out: EC50, CX4/LCG assay in glucose-containing buffer

SMILES	EC50 [1, 3]	Y30µM, membrane activity, CX4/LCG assay [1]	EC50 [1, 4]	K a, binding constant of peptide to CX4 [2]
CC[C@H](C)[C@H](NC(=O)[C@H](CCCCN)NC(=O)[C@@H](NC(=O)[C@@H](N)CCC(N)=O)[C@@H](C)CC)C(=O)N[C@@H](Cc1c[nH]c2ccccc12)C(=O)N[C@@H](Cc1ccccc1)C(=O)N[C@@H](CCC(N)=O)C(=O)N[C@@H](CC(N)=O)C(=O)N[C@@H](CCCNC(=N)N)C(=O)N[C@@H](CCCNC(=N)N)C(=O)N[C@@H](CCSC)C(=O)N[C@@H](CCCCN)C(=O)N[C@@H](Cc1c[nH]c2ccccc12)C(=O)N[C@@H](CCCCN)C(=O)N[C@@H](CCCCN)C(=O)O (H-QIKIWFQNRRMKWKK-OH)	70 ± 13 µM	0.49	140 ± 40 µM	(9.9 ± 1.8) × 10^7 M^−1
CC(C)C[C@H](NC(=O)[C@H](CC(C)C)NC(=O)[C@H](CCCNC(=N)N)NC(=O)[C@@H](N)CC(C)C)C(=O)N[C@@H](CCCNC(=N)N)C(=O)N[C@@H](Cc1c[nH]c2ccccc12)C(N)=O [LRLLRW] (H-LRLLRW-NH2)		0.53	14 ± 2 µM	(1.3 ± 0.1) × 10^6 M^−1
CC(C)[C@H](NC(=O)[C@H](CCCCN)NC(=O)[C@H](CCCNC(=N)N)NC(=O)[C@H](CCCCN)NC(=O)[C@H](CCCCN)NC(=O)[C@H](CCCCN)NC(=O)[C@@H]1CCCN1C(=O)[C@H](CCC(N)=O)NC(=O)[C@H](CO)NC(=O)[C@H](Cc1c[nH]c2ccccc12)NC(=O)[C@H](CC(=O)O)NC(=O)[C@@H](NC(=O)[C@H](Cc1c[nH]c2ccccc12)NC(=O)[C@H](Cc1c[nH]c2ccccc12)NC(=O)[C@@H](NC(=O)[C@H](CC(=O)O)NC(=O)[C@H](Cc1c[nH]c2ccccc12)NC(=O)[C@H](Cc1c[nH]c2ccccc12)NC(=O)[C@@H](NC(=O)[C@H](CC(=O)O)NC(=O)[C@@H](N)CCCCN)[C@@H](C)O)[C@@H](C)O)[C@@H](C)O)C(=O)O [Pep‐1] (H-KDTWWDTWWTDWSQPKKKRKV-OH)	32 ± 14 µM	0.67	4.5 ± 0.7 µM	(2.8 ± 0.2) × 10^6 M^−1
CC[C@H](C)[C@H](NC(=O)[C@H](CCCCN)NC(=O)[C@H](CCCCN)NC(=O)[C@H](C)NC(=O)[C@H](CC(C)C)NC(=O)[C@H](C)NC(=O)[C@H](C)NC(=O)[C@H](CC(C)C)NC(=O)[C@H](C)NC(=O)[C@H](CCCCN)NC(=O)[C@H](CC(C)C)NC(=O)[C@H](CC(N)=O)NC(=O)[C@@H](NC(=O)[C@H](CCCCN)NC(=O)CNC(=O)[C@H](CC(C)C)NC(=O)[C@H](CC(C)C)NC(=O)[C@H](Cc1ccc(O)cc1)NC(=O)CNC(=O)[C@H](C)N)[C@@H](C)CC)C(=O)N[C@@H](CC(C)C)C(=O)O [TP10]		0.88	1.7 ± 0.6 µM	
